Assay results from patent publication US20140106015A1, “COMPOSITION CONTAINING HEAT-TREATED POWDER OR EXTRACT OF GLYCINE SOJA AS ACTIVE GRADIENT FOR PREVENTION AND TREATMENT OF DIABETES MELLITUS AND DIABETIC COMPLICATIONS” (KOC BIOTEC CO LTD, priority 2011, published 2014).
One block for each molecule: values may come before it.

Tests used:
Type in all cases: in vivo, mouse
db/db mice [1] = assay: Experimental Example 2: glycine soja streamed powder versus metformin in db/db mice, 6 weeks oral; settings: age of 10 weeks
Method: The glycine soja streamed powder (DC) was diluted with physiological saline and the dilution was orally administered in divided portions (each 0.2 ml) at 10 a.m. and 4 p.m. daily using a mouse sonde (2 g/kg/day). Metformin (1,1-dimethylbiguanide), which is a widely used hypoglycemic agent, was chosen as positive control. Metformin was dissolved in 0.25% carboxymethylcellulose (CMC) and administered orally in two divided portions (each 0.2 ml) in the same manner (150 mg/kg/day). The same amount of physiological saline as negative control was administered in the same manner. A general bean streamed powder was used as another comparative test group. The bean streamed powder was obtained in the same manner as in Example 1, except that bean was used instead of glycine soja. The bean streamed powder was administered orally twice a day in the same amount and manner as the glycine soja streamed powder (DC).
Male db/db mice, aged 3 weeks, were acclimatized to an animal breeding room for 1 week. 6 mice were assigned to each experimental group. The blood glucose levels of the animals were measured from the age of 4 weeks at intervals of 1 week for a total of 6 weeks. Drug was administered orally in divided portions (each 0.2 ml) at 10 a.m. and 4 p.m. daily using a mouse sonde. All animals were fasted for 6 h from 9 a.m. to 3 p.m. every Wednesday. Blood samples were collected from the mouse tail vein and blood glucose levels were measured using a portable blood glucose meter (OneTOUCH@Ultra. Johnson & Johnson, USA). Since serum for final biochemical analysis requires blood sampling after fasting for at least 12 h, blood glucose levels were measured at the final 8th week. 2 days after the measurement, an autopsy was conducted. For the autopsy, all animals were fasted for 12 h. Blood samples were drawn from the heart under ether anesthesia, put in tubes for serum separation, and centrifuged at 3000 rpm for 20 min to obtain serum samples, which were used as samples for the analysis of biochemical indices.
Experimental Group Classification • Control (db/db mice) (n=6) • Positive control (Metformin, 150 mg/kg/day, o.p) (n=6) • Glycine soja streamed powder (DC) (2.0 g/kg/day, o.p) (n=6) • Bean powder (2.0 g/kg/day, o.p) (n=6)
After a test material was administered to each experimental group for 6 weeks, blood glucose level was measured at the final 8th week. 2 days after the measurement, an autopsy was conducted. For the autopsy, each animal was fasted for 12 h. Blood was drawn from the heart under ether anesthesia, put in a tube for serum separation, and centrifuged at 3000 rpm for 20 min to obtain serum, which was used as a sample for the analysis of biochemical indices. The glucose and insulin levels of the serum were analyzed. Changes in the insulin level and insulin resistance index (HOMAIR) of each experimental group during administration for 8 weeks period were calculated by the following formulae. Plasma was obtained as a sample in the same manner. The level of insulin in the plasma was measured using a Mouse Insulin ELISA kit (Shibayagi, Japan) and an ELISA reader (Labsystems, Finland).
After a test material was administered to each experimental group for 6 weeks, abdominal, epididymal, and inguinal adipose tissues were excised from each experimental animal. The total weight of the adipose tissues was measured.
Blood was obtained in the same manner as in 1-3, put in a tube for serum separation, and centrifuged at 3000 rpm for 20 min to obtain serum, which was used as a sample for the analysis of biochemical indices. Total cholesterol, high-density lipoprotein (HDL) cholesterol, low-density lipoprotein (LDL) cholesterol, triglyceride, and phospholipid levels, which are indices of lipid contents in plasma and liver, in the plasma were measured using an automatic biochemical analyzer (Hitachi-720, Hitachi Medical, Japan). […]

db/db mice [2] = assay: as above; settings: age of 10 weeks, fasted about 16 h, DC and bean powder 2 g/kg/day, metformin 150 mg/kg/day
[3] = test system: BKS.Cg-m+/+ Leprdb/J homozygous diabetic (db/db) mice; assay: Experimental Example 5: efficacy comparison with anthocyanins, pinitol, banaba/Cr complex in db/db mice
Method: “Pinitol”: Product containing 95% or more of pinitol (Sigma-Aldrich) “Banaba/Cr complex”: Wellness Banaba Gold ChromeTM (containing 400 mg/g banaba leaf extract, 200 mg/g indigestible maltodextrin and 0.1 mg/g chromium) Male db/db mice, aged 3 weeks, were acclimatized to an animal breeding room for 1 week. 4 mice were assigned to each experimental group. […] All animals were fasted for 6 h from 9 a.m. to 3 p.m. every Wednesday. Blood samples were collected from the mouse tail vein and blood glucose levels were measured using a portable blood glucose meter (OneTOUCH@Ultra, Johnson & Johnson, USA). […] The following are a total of 8 experimental groups used. Classification of Experimental Groups • NC: […] After the drug (test material) was administered to each experimental group for 6 weeks, abdominal, epididymal, and inguinal adipose tissues were excised from each experimental animal. The total weight of the adipose tissues was measured. […] For the autopsy, each animal was fasted for 12 h. […] After plasma was separated, the levels of total cholesterol, high-density lipoprotein (HDL) cholesterol, low-density lipoprotein (LDL) cholesterol, triglyceride, BUN, and phospholipid in the plasma were measured using an automatic biochemical analyzer (Hitachi-720, Hitachi Medical, Japan). […] The levels of glucose and insulin in the serum were analyzed. Plasma was obtained as a sample in the same manner. The plasma insulin level was measured using a Mouse Insulin ELISA kit (Shibayagi, Japan) and an ELISA reader (Labsystems, Finland). Data obtained from the above experiments were expressed as mean±standard error and significance assay was determined using Student's T-test.

[4] = DC and bean powder 2 g/kg/day, metformin 150 mg/kg/day
[5] = metformin 150 mg/kg/day, bean powder 2 g/kg/day
[6] = db/db mice, 100 mg/kg/day, BANABA 300 mg/kg/day

SMILES: CN(C)C(=N)NC(=N)N [metformin, 1,1-dimethylbiguanide]
- serum high-density lipoprotein cholesterol level compared with non-administered group (db/db mice [1]): no significant differences
- serum triglyceride level lower than non-administered group (NC) (db/db mice [1]; DC 2 g/kg/day, metformin 150 mg/kg/day): 38.8%
- serum ALT level (db/db mice [1]; [4]): 54.9 U/L
- serum AST level (db/db mice [1]; [4]): 120.0 U/L
- serum glucose level lower than non-administered group (db/db mice [1]; [4]): 34.6%
- serum triglyceride (TG) level (db/db mice [1]; [4]): 78.8 mg/dL
- serum total cholesterol level compared with non-administered group (db/db mice [1]; metformin 150 mg/kg/day): low compared to that of the non-administered group, but there was no statistical significance
- serum insulin level compared with non-administered group (db/db mice [1]; [5]): slightly lower than the serum insulin level of the non-administered group, but there were no statistical significances
- serum low-density lipoprotein cholesterol level compared with non-administered group (db/db mice [1]; [5]): low compared to the low-density lipoprotein cholesterol level of the non-administered group, but there were no statistical significances
- blood glucose level lower than non-administered group (NC) (db/db mice [1]; oral 6 weeks, DC and bean powder 2 g/kg/day, metformin 150 mg/kg/day): 34.6%
- serum glucose level (db/db mice [2]): 376.0 mg/dL

- serum BUN level higher than non-treated group ([3]; No. 4 mouse of the Pinitol-administered group): ≥ 3 times
- serum BUN level ([3]; No. 4 mouse of the Pinitol-administered group, 100 mg/kg/day, NC 30.2 mg/dL): 92.8 mg/dL
SMILES: CO[C@H]1[C@H](O)[C@@H](O)[C@@H](O)[C@H](O)[C@@H]1O [Pinitol, pinitol]
- blood glucose level ([3]; db/db mice, 9th week, tail vein, fasted 6 h, oral 6 weeks, 100 mg/kg/day, BANABA 300 mg/kg/day): 231.8 mg/dL
- blood glucose level lower than NC (hypoglycemic efficacy) ([3]; db/db mice, 9th week, 100 mg/kg/day, BANABA 300 mg/kg/day): 52.1%
- daily food intake compared with non-treated group ([3]; db/db mice, after completion of the tests): smaller
- serum low-density lipoprotein cholesterol level compared with non-treated group ([3]; db/db mice, age of 9 weeks): not substantially different
- serum insulin level ([3]; db/db mice, age of 9 weeks, 100 mg/kg/day, BANABA 300 mg/kg/day): 6.6 ng/mL
- serum insulin level lower than NC (suppressive efficacy on insulin resistance) ([3]; db/db mice, age of 9 weeks, NC 10.2 ng/ml): 35.3%
- serum triglyceride (TG) level relative to non-treated group (NC) ([3]; db/db mice, age of 9 weeks, NC 22 mg/dL): approximately twice
- serum total cholesterol level compared with non-treated group ([3]; db/db mice, age of 9 weeks, NC 168.3 mg/dL): not substantially different
- adipose tissue weight lower than non-treated group (NC) ([3]; db/db mice, age of 10 weeks): about 5.4%
- liver tissue weight compared with NC ([3]; db/db mice, age of 10 weeks): not substantially different
- liver tissue weight lower than non-treated group (NC) ([3]; db/db mice, age of 10 weeks, p<0.05): about 7.0%
- food efficiency ratio compared with non-treated group ([3]; db/db mice, for 5 weeks): similar
- Food efficiency ratio (PER, %) ([3]; db/db mice, for 5 weeks, calculated from food intakes and body weight gains): 11.9 ± 1.28%
- Body weight gain [3, 6]: 0.500 ± 0.05 g/day
- Food intake [3, 6]: 4.20 g/day
